Legend:
[1] = tested on: SK-MEL-5 melanoma cell line; assay: NCI five-dose testing; type: cell-based; conditions: SK-MEL-5
Description: (§1) Screening against the cancer cell lines was carried out at the National Cancer Institute (NCI, Bethesda, Maryland, USA) applying the standard protocol of the NCI[22].

[2] = tested on: A498 renal cancer cell line; assay: NCI five-dose testing; type: cell-based; conditions: A498
Description: as §1

[3] = tested on: PC-3 prostate cancer cell line; assay: NCI five-dose testing; type: cell-based; conditions: PC-3
Description: as §1

[4] = tested on: OVCAR-4 ovarian cancer cell line; assay: NCI five-dose testing; type: cell-based; conditions: OVCAR-4
Description: as §1

[5] = tested on: MDA-MB-468 breast cancer cell line; assay: NCI five-dose testing; type: cell-based; conditions: MDA-MB-468
Description: as §1

[6] = tested on: U251 CNS cancer cell line; assay: NCI five-dose testing; type: cell-based; conditions: U251
Description: as §1

[7] = tested on: HT-29 colon cancer cell line; assay: NCI five-dose testing; type: cell-based; conditions: HT-29
Description: as §1

[8] = tested on: K-562 leukaemia cell line; assay: NCI five-dose testing; type: cell-based; conditions: K-562
Description: as §1

[9] = tested on: HOP-92 non-small cell lung cancer cell line; assay: NCI five-dose testing; type: cell-based; conditions: HOP-92
Description: as §1

BRAF (V600E) = target: T1, BRAF (V600E) (Homo sapiens, UniProt P15056, V600E); assay: In vitro kinase screening (Kinase HotSpot); type: biochemical; conditions: single dose of 10 µM, BRAF (V599E) in Table 6, BRAF (V600E) in text
T1 construct: purchased Reaction Biology Corp
Text: (§2) To investigate the biological target of compound, Reaction Biology Corp. Kinase HotSpotSM service was used adopting standard assay protocol.

JNK3 = target: T2, JNK3 (Homo sapiens, UniProt P53779); assay: In vitro kinase screening (Kinase HotSpot); type: biochemical; conditions: single dose of 10 µM
T2 construct: purchased Reaction Biology Corp
Text: as §2

JNK1 = target: T3, JNK1 (Homo sapiens, UniProt P45983); assay: In vitro kinase screening (Kinase HotSpot); type: biochemical; conditions: single dose of 10 µM
T3 construct: purchased Reaction Biology Corp
Text: as §2

EGFR = target: T4, EGFR (Homo sapiens, UniProt P00533); assay: In vitro kinase screening (Kinase HotSpot); type: biochemical; conditions: single dose of 10 µM
T4 construct: purchased Reaction Biology Corp
Text: as §2

P38a/MAPK14 = target: T5, P38a/MAPK14 (Homo sapiens, UniProt Q16539); assay: In vitro kinase screening (Kinase HotSpot); type: biochemical; conditions: single dose of 10 µM, P38a/MAPK14
T5 construct: purchased Reaction Biology Corp
Text: as §2

GSK3b = target: T6, GSK3b (Homo sapiens, UniProt P49841); assay: In vitro kinase screening (Kinase HotSpot); type: biochemical; conditions: single dose of 10 µM
T6 construct: purchased Reaction Biology Corp
Text: as §2

JNK2 = target: T7, JNK2 (Homo sapiens, UniProt P45984); assay: In vitro kinase screening (Kinase HotSpot); type: biochemical; conditions: single dose of 10 µM
T7 construct: purchased Reaction Biology Corp
Text: as §2

ABL1 (T315I) = target: T8, ABL1 (T315I) (Homo sapiens, UniProt P00519, T315I); assay: In vitro kinase screening (Kinase HotSpot); type: biochemical; conditions: single dose of 10 µM
T8 construct: purchased Reaction Biology Corp
Text: as §2

BRAF = target: T9, BRAF (Homo sapiens, UniProt P15056); assay: In vitro kinase screening (Kinase HotSpot); type: biochemical; conditions: single dose of 10 µM
T9 construct: purchased Reaction Biology Corp
Text: as §2

CDK2/cyclin E = target: T10, CDK2/cyclin E (Homo sapiens, UniProt P24941); assay: In vitro kinase screening (Kinase HotSpot); type: biochemical; conditions: single dose of 10 µM
T10 construct: purchased Reaction Biology Corp
Text: as §2

IKKb/IKBKB = target: T11, IKKb/IKBKB (Homo sapiens, UniProt O14920); assay: In vitro kinase screening (Kinase HotSpot); type: biochemical; conditions: single dose of 10 µM
T11 construct: purchased Reaction Biology Corp
T11 sequence (O14920 1-756): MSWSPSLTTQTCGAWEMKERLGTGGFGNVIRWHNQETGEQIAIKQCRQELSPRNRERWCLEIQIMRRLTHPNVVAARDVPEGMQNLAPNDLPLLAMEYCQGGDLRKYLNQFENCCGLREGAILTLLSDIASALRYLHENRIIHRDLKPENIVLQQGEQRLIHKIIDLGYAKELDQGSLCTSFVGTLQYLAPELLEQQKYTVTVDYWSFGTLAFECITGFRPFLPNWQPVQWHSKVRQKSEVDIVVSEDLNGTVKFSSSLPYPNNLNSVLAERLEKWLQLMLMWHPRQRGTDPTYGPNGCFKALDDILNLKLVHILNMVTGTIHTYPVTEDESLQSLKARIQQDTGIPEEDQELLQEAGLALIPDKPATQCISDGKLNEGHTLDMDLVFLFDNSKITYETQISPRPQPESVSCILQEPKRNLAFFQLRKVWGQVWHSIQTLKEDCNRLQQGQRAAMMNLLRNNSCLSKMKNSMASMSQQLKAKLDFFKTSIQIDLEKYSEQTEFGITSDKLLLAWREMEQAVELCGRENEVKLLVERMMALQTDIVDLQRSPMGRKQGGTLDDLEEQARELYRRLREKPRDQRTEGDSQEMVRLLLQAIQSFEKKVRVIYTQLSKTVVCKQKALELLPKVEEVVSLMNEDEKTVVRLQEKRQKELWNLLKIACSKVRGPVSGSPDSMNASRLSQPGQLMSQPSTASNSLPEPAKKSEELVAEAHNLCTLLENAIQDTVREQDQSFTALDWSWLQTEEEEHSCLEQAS
Text: as §2

renal cancer cell lines = assay: NCI five-dose testing, subpanel mean; type: cell-based; conditions: subpanel VII: renal cancer
Description: as §1

melanoma cell lines = assay: NCI five-dose testing, subpanel mean; type: cell-based; conditions: subpanel V: melanoma
Description: as §1

breast cancer cell lines = assay: NCI five-dose testing, subpanel mean; type: cell-based; conditions: subpanel IX: breast cancer
Description: as §1

[10] = tested on: non-small cell lung cancer cell lines; assay: NCI five-dose testing, subpanel mean; type: cell-based; conditions: subpanel II: non-small cell lung cancer
Description: as §1

Leukaemia cell lines = assay: NCI five-dose testing, subpanel mean; type: cell-based; conditions: subpanel I: Leukaemia
Description: as §1

colon cancer cell lines = assay: NCI five-dose testing, subpanel mean; type: cell-based; conditions: subpanel III: colon cancer
Description: as §1

CNS cancer cell lines = assay: NCI five-dose testing, subpanel mean; type: cell-based; conditions: subpanel IV: CNS cancer
Description: as §1

[11] = tested on: prostate cancer cell lines; assay: NCI five-dose testing, subpanel mean; type: cell-based; conditions: subpanel VIII: prostate cancer
Description: as §1

[12] = tested on: ovarian cancer cell lines; assay: NCI five-dose testing, subpanel mean; type: cell-based; conditions: subpanel VI: ovarian cancer
Description: as §1

[13] = read-out: TGI (total growth inhibition concentration)

T4 sequence (P00533 25-1210): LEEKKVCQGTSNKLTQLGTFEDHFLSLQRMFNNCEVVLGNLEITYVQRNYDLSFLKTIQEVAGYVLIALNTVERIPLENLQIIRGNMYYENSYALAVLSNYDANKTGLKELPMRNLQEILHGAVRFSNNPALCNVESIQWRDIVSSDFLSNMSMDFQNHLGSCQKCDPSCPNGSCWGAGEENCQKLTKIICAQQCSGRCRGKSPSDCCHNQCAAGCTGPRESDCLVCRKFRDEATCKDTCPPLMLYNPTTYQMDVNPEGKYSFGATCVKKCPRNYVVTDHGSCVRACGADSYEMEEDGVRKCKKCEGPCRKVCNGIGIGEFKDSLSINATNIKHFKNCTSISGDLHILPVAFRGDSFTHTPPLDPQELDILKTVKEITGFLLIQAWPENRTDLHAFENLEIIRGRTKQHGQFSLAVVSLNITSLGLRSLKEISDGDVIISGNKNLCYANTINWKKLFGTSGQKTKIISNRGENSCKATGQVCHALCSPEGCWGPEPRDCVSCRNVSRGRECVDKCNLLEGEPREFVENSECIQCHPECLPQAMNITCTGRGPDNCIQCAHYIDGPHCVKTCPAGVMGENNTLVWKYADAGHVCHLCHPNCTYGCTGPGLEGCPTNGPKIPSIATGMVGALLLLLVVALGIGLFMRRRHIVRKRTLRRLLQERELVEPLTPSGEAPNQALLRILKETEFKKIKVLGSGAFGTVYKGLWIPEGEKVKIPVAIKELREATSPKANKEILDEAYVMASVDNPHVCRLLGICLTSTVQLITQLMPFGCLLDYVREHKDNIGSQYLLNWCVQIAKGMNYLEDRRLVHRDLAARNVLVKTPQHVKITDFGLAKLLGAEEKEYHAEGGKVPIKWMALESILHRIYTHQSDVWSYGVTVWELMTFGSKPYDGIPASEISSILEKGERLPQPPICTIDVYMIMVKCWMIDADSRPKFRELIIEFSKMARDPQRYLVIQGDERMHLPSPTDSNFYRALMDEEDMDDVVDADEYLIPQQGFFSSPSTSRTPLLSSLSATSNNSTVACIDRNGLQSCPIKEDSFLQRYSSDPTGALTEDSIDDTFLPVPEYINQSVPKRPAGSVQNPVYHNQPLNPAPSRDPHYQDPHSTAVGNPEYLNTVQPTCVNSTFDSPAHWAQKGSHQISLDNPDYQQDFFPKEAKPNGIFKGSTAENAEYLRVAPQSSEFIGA
T9 sequence (P15056 whole entry): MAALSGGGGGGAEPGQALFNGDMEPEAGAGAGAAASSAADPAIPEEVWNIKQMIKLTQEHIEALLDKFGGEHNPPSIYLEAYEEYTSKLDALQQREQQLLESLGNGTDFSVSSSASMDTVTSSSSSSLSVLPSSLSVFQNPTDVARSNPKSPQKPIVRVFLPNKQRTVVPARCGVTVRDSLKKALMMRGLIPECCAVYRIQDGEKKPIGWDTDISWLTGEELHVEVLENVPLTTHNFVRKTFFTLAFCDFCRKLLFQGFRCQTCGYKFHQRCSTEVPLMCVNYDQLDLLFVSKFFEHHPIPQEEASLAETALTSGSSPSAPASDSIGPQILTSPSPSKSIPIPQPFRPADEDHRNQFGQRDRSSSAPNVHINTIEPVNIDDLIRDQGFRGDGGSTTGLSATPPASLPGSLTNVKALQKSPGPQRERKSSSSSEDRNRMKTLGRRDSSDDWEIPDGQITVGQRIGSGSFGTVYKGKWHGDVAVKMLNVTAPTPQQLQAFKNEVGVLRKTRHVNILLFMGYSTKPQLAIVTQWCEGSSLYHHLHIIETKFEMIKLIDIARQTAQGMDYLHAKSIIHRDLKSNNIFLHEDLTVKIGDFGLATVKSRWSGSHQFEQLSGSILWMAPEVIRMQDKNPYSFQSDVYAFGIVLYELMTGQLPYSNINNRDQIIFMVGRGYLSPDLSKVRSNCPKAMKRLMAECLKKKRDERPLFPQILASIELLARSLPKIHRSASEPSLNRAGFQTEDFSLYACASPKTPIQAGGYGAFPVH
T2 sequence (P53779 whole entry): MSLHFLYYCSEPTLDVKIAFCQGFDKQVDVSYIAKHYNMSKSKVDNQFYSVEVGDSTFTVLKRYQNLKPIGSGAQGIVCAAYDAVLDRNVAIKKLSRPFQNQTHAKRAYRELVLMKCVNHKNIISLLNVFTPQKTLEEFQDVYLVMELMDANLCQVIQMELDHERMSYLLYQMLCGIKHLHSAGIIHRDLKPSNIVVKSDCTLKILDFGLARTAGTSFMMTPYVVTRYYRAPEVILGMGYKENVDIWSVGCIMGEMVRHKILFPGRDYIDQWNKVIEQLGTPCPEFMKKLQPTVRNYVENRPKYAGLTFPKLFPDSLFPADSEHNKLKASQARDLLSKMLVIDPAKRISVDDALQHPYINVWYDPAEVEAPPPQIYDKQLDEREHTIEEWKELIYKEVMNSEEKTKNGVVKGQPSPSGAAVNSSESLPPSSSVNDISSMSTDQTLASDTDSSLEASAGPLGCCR
T5 sequence (Q16539 whole entry): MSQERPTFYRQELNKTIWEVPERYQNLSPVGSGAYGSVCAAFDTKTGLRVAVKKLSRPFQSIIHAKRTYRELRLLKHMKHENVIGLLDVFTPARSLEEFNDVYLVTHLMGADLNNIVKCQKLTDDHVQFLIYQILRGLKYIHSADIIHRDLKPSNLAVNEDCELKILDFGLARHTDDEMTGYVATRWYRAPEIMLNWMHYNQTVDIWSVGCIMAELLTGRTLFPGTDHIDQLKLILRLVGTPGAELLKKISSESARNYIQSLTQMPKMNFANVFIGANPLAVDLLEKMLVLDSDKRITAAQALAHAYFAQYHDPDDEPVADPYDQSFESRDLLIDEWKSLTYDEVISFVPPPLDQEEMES
T3 sequence (P45983 whole entry): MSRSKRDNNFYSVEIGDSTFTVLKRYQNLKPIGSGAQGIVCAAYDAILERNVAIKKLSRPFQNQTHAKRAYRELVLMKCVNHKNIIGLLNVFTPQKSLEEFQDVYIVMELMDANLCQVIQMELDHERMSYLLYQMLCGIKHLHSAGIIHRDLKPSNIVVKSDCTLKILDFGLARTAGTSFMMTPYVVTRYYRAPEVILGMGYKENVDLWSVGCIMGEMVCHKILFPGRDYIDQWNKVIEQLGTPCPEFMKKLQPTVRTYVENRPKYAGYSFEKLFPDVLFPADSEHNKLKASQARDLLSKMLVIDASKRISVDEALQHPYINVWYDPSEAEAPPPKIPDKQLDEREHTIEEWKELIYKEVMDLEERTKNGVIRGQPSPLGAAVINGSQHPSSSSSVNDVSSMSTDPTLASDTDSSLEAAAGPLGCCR
T7 sequence (P45984 whole entry): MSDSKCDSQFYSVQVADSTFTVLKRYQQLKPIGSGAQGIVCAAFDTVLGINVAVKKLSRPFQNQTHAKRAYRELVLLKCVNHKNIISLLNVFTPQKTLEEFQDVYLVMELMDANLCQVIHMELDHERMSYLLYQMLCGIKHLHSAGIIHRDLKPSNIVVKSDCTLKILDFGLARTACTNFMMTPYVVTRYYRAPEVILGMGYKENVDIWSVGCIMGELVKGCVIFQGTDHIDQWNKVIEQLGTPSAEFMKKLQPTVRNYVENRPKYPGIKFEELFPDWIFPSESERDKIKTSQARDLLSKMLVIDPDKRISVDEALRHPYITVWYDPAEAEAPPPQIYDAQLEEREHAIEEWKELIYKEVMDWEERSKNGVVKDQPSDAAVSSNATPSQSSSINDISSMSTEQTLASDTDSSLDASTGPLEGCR
T1 sequence (P15056 whole entry V600E): as the sequence (P15056 whole entry) above, with V600E counted along it
T6 sequence (P49841 whole entry): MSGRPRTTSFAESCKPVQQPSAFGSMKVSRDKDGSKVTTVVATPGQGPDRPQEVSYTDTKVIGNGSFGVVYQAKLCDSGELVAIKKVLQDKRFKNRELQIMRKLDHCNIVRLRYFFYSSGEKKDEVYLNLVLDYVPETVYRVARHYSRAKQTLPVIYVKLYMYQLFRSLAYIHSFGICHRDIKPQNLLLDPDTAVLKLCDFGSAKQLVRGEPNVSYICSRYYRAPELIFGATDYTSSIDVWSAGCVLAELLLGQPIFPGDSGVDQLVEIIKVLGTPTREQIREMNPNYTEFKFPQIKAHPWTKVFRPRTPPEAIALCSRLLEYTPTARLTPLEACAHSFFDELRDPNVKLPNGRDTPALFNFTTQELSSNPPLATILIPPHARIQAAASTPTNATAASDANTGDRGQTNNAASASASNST

In the case of O=S(=O)(NCCNc1cc(-c2cn(-c3ccccc3)nc2-c2cccc(O)c2)ccn1)c1ccc(Cl)cc1 [Compound 1l, 4-Chloro-N-(2-((4-(3-(3-hydroxyphenyl)-1-phenyl-1H-pyrazol-4-yl)pyridin-2-yl)amino)ethyl) benzenesulfonamide], the IC50 [1] is reported as 2020 nM, the “LD50 (lethal dose 50)” value [1] is reported as 7.9 µM and the IC (TGI) [1, 13] is reported as 4000 nM. For the same molecule, the IC50 [2] was 2630 nM, the “LD50 (lethal dose 50)” value [2] was 57.1 µM and the IC (TGI) [2, 13] was 9500 nM. The “LD50 (lethal dose 50)” value [3] was greater than 100 µM, the IC50 ([3]; read-out: IC50) was 2450 nM and the IC (TGI) [3, 13] was 12000 nM. The IC50 [4] was 4370 nM, the “LD50 (lethal dose 50)” value [4] was greater than 100 µM and the IC (TGI) [4, 13] was greater than 100000 nM. The IC50 [5] was 2780 nM, the “LD50 (lethal dose 50)” value [5] was greater than 100 µM and the IC (TGI) [5, 13] was 7660 nM. For the same molecule, the “LD50 (lethal dose 50)” value [6] was 45.9 µM, the IC50 ([6]; read-out: IC50) was 3210 nM and the IC (TGI) [6, 13] was 11400 nM. For the same molecule, the “LD50 (lethal dose 50)” value [7] was 61.8 µM, the IC50 ([7]; read-out: IC50) was 2240 nM and the IC (TGI) [7, 13] was 5200 nM. For the same molecule, the IC50 [8] was 1980 nM, the “LD50 (lethal dose 50)” value [8] was greater than 100 µM and the IC (TGI) [8, 13] was 5400 nM. The IC50 [9] was 2340 nM, the “LD50 (lethal dose 50)” value [9] was 70.5 µM and the IC (TGI) [9, 13] was 8300 nM. It also gave an Inhibition % (BRAF (V600E)) of 48.09 ± 0.45%, an Inhibition % (JNK3) of 35.70 ± 0.04% and an Inhibition % (JNK1) of 53.79 ± 0.04%. It also gave an Inhibition % (EGFR) of 10.33 ± 3.40%, an Inhibition % (P38a/MAPK14) of 68.43 ± 0.59% and an Inhibition % (GSK3b) of 15.88 ± 0.21%. It also gave an Inhibition % (JNK2) of 44.68 ± 0.01%, an Inhibition % (ABL1 (T315I)) of 6.39 ± 0.35% and an Inhibition % (BRAF) of 21.28 ± 0.21%. For the same molecule, the Inhibition % (CDK2/cyclin E) was 8.36 ± 0.95%, the Inhibition % (IKKb/IKBKB) was 7.80 ± 0.10% and the IC50 (renal cancer cell lines) was 3180 nM. For the same molecule, the IC50 (melanoma cell lines) was 2380 nM, the IC50 (breast cancer cell lines) was 2480 nM and the IC50 [10] was 3160 nM. For the same molecule, the IC50 (Leukaemia cell lines) was 2440 nM, the IC50 (colon cancer cell lines) was 2460 nM and the IC50 (CNS cancer cell lines) was 2850 nM. The IC50 [11] was 3030 nM and the IC50 [12] was 3290 nM.
